pKi: −log10 of the molar value. Read-outs that look alike come from different tables or passages of the source.
Target: cyclic AMP phosphodierterase
Experiment: cyclic AMP phosphodiesterase activity in rat gastrocnemius muscle homogenates (Dixon plot)
Type: biochemical
Conditions: homogenates of rat gastocnemius muscle, 0.31 uM cyclic AMP as substrate, Dixon plot extrapolation
Protocol: The activity of cyclic AMP phosphodierterase in homogenates of rat gastocnemius muscle was measured in the presence of various concentrations of compounds of formulae (I), (II), (III), (IV) or (V) using 0.31 uM cyclic AMP as substration. The reciprocal of the reaction rate was plotted on the y axis against the concentration of each compound on the x axis (Dixon plot). The apparent Ki value was estimated by extrapolating the steeper linear portion of the Dixon plot to the x axis and obtaining the negative intercept on the x axis.

[1] = compounds of formula (III), read-out: Apparent Ki value
[2] = compounds of formula (II), read-out: Apparent Ki Value
[3] = compounds of formula (I), read-out: Apparent Ki value.

SMILES	pKi [3]	also measured
CCn1c(=O)c2c(ncn2CC2(C)OCCO2)n(CC)c1=O		pKi [1]: 4.14
CCCCn1c(=O)c2c(ncn2CC2(C)OCCO2)n(CC)c1=O		pKi [1]: 4.35
CCCCn1c(=S)c2c(ncn2CC(C)=O)n(CC)c1=O		pKi [2]: 4.39
CCCCn1c(=S)c2c(ncn2CCC(C)=O)n(CC)c1=O		pKi [2]: 4.64
CCCCn1c(=O)c2c(ncn2C(C)C(C)=O)n(CC)c1=O (centres unmarked)	4.61	
CCCCn1c(=O)c2c(ncn2C(C)C(C)=O)n(CCCC)c1=O (centres unmarked)	4.52	
CCCCn1c(=O)c2c(ncn2C(C)CC(C)=O)n(CCCC)c1=O (centres unmarked)	4.76	
CC(=O)Cn1cnc2c1c(=O)n(C(C)C)c(=O)n2C(C)C [1,3-di-iso-propyl-7-(2-oxopropyl) xanthine]	5.21	
CCCCn1c(=O)c2c(ncn2CC(C)=O)n(CCCC)c1=S [1,3-di-n-butyl-7-(2-oxopropyl)-2-thioxanthine]		pKi [2]: 5.60
CCCCn1c(=O)c2c(ncn2CC(C)(OC)OC)n(CCCC)c1=O [1,3-di-n-butylxanthin-7-yl propan-2-one, dimethyl ketal]		pKi [1]: 4.57
CCCCn1c(=O)c2c(ncn2CC2(C)OCCO2)n(CCCC)c1=O [2-methyl-2-[(1,3-di-n-butylxanthin-7-yl)methyl]-1,3-di oxolane]		pKi [1]: 4.54
CCCn1c(=O)c2c(ncn2CCC(C)=O)n(CCC)c1=O [formula (I) R^1=C3H7 R^2=C3H7 X=-(CH2)2-]	4.57	
CCCCn1c(=O)c2c(ncn2CCC(C)=O)n(CC)c1=O [formula (I) R^1=C4H9 R^2=C2H5 X=-(CH2)2-, 1-n-butyl 3-ethyl-7-(3-oxobutyl) xanthine]	4.92	
CCCCn1c(=O)c2c(ncn2CC(C)=O)n(CC)c1=O [formula (I) R^1=C4H9 R^2=C2H5 X=-CH2-]	4.68	
CCCCn1c(=O)c2c(ncn2CC(C)=O)n(CCC)c1=O [formula (I) R^1=C4H9 R^2=C3H7 X=-CH2-, 1-n-butyl 3-n-propyl-7-(2-oxopropyl) xanthine]	5.70	
CCCCn1c(=O)c2c(ncn2CCC(C)=O)n(CCCC)c1=O [formula (I) R^1=C4H9 R^2=C4H9 X=-(CH2)2-, 1,3-di-n-butyl-7-(3-oxobutyl) xanthine]	4.60	
CCCCn1c(=O)c2c(ncn2CCCC(C)=O)n(CCCC)c1=O [formula (I) R^1=C4H9 R^2=C4H9 X=-(CH2)3-]	4.41	
CCCCn1c(=O)c2c(ncn2CCCCC(C)=O)n(CCCC)c1=O [formula (I) R^1=C4H9 R^2=C4H9 X=-(CH2)4-, 1,3-di-n-butyl-7-(5-oxohexyl)xanthine]	4.85	
CCCCn1c(=O)c2c(ncn2CC(C)=O)n(CCCC)c1=O [formula (I) R^1=C4H9 R^2=C4H9 X=-CH2-, 1,3-di-n-butyl-7-(2-oxopropyl) xanthine]	5.48	
CCCCn1c(=O)n(CCCCC(C)=O)c(=O)c2c1ncn2CC(C)=O [formula (V) R^12=C4H9, 1-(5-oxohexyl)-3-n-butyl-7-(2-oxopropyl) xanthine]		pKi (compounds of formula (V), read-out: Apparent Ki value): 5.41
